From patent publication US10294202B2, “Pyrrolidinones as herbicides” (FMC Corporation, priority 2013, dated 2019)

Legend:
blackgrass = experiment: Test A postemergence herbicide test; format: in vivo, Alopecurus myosuroides
Outline: (§1)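 Ratings compare treated with untreated plants roughly 10 days after a postemergence application made at the one- to two-leaf stage. Scoring uses 0–100, where 0 means no effect and 100 complete control.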

galium = experiment: Test A postemergence herbicide test; format: in vivo, Galium aparine
Outline: as §1

sedge, umbrella = experiment: Test C flooded paddy test; format: in vivo, Cyperus difformis; conditions: Flood
Outline: (§2)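 Ratings reflect visual comparison with controls on a 0–100 scale, where 100 is complete control. Compound is dosed into standing paddy water 3 cm deep over 2-leaf-stage plants, kept in the greenhouse 13 to 15 days.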

ryegrass, Italian = experiment: Test A pre-/postemergence herbicide test; format: in vivo, Lolium multiflorum
Outline: (§3)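 Planted in loam–sand blend; treated the same day preemergence by directed soil spray, while separately grown plants at one- to two-leaf stage got postemergence spray. Compared visually with untreated controls after approximately 10 days; 100 means complete control.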

ragweed = experiment: Test A pre-/postemergence herbicide test; format: in vivo, Ambrosia elatior
Outline: as §3

kochia = experiment: Test A pre-/postemergence herbicide test; format: in vivo, Kochia scoparia
Outline: as §3

rice = experiment: Test C flooded paddy test; format: in vivo, Oryza sativa; conditions: Flood
Outline: as §2

ducksalad = experiment: Test C flooded paddy test; format: in vivo, Heteranthera limosa; conditions: Flood
Outline: as §2

[1] = 125 g ai/ha, 0 to 100 scale, 0 no effect, 100 complete control
[2] = 500 g ai/ha, 0 to 100 scale (0 no effect, 100 complete control)
[3] = 31 g ai/ha, scale of 0 to 100 where 0 is no effect and 100 is complete control, 13 to 15 days
[4] = 62 g ai/ha, scale of 0 to 100 where 0 is no effect and 100 is complete control, 13 to 15 days
[5] = 125 g ai/ha, scale of 0 to 100 where 0 is no effect and 100 is complete control, 13 to 15 days
[6] = 125 g ai/ha, visual rating, 0 to 100 scale, 0 no effect, 100 complete control, approximately 10 days, preemergence
[7] = Postemergence, 125 g ai/ha, 0 to 100 scale, 0 no effect, 100 complete control
[8] = preemergence, 500 g ai/ha, 0 to 100 scale
[9] = 125 g ai/ha, 0 to 100 scale, 0 is no effect, 100 is complete control
[10] = 250 g ai/ha, scale of 0 to 100 where 0 is no effect and 100 is complete control, 13 to 15 days
[11] = Postemergence, 125 g ai/ha, 0 to 100 scale, 0 is no effect, 100 is complete control
[12] = preemergence, 500 g ai/ha, 0 to 100 scale, 0 is no effect and 100 is complete control
[13] = Postemergence, 125 g ai/ha, visual rating on 0 to 100 scale (0 no effect, 100 complete control), approx. 10 days
[14] = Postemergence, 500 g ai/ha, 0 to 100 scale (0 no effect, 100 complete control)
[15] = Preemergence, 125 g ai/ha, 0 to 100 scale where 0 is no effect and 100 is complete control

Structure (SMILES) | Galium plant response rating (0 to 100 scale, 0 is no effect, 100 is complete control) (galium; 500 g ai/ha) | Plant response rating, Sedge, Umbrella (sedge, umbrella; [5]) | Plant response rating, Ryegrass, Italian (ryegrass, Italian; [6]) | Ryegrass, Italian plant response rating (0 to 100 scale, 0 is no effect, 100 is complete control) (ryegrass, Italian; Postemergence, 500 g ai/ha) | Plant response rating, Ragweed (ragweed; [6]) | Ragweed plant response rating (0 to 100 scale, 0 is no effect, 100 is complete control) (ragweed; Postemergence, 500 g ai/ha) | Plant response rating, Kochia (kochia; [6]) | Kochia plant response rating (0 to 100 scale, 0 is no effect, 100 is complete control) (kochia; Postemergence, 500 g ai/ha) | Plant response rating, Rice (rice; [5]) | Plant response rating, Ducksalad (ducksalad; [5]) | Plant response rating, Blackgrass (blackgrass; [9]) | Plant response rating, Galium (galium; [9]) | Plant response rating, Sedge, Umbrella (sedge, umbrella; [10]) | Plant response rating, Sedge, Umbrella (sedge, umbrella; 500 g ai/ha, scale 0 to 100) | Plant response rating, Ryegrass, Italian (ryegrass, Italian; [12]) | Plant response rating, Ragweed (ragweed; [12]) | Plant response rating, Kochia (kochia; [11]) | Plant response rating, Kochia (kochia; [12]) | Plant response rating, Rice (rice; [10]) | Plant response rating, Rice (rice; 500 g ai/ha, scale 0 to 100) | other results
O=C1NCC(c2ccc(F)cc2)C1C(=O)Nc1cccc(F)c1F (racemic) [Compound 119] | 50 | 0 | 20 | 40 | 70 | 30 | 40 | 50 | 10 | 100 |  |  |  |  |  |  |  |  |  |  | Plant response rating, Blackgrass (blackgrass; [1]): 30; Plant response rating, Blackgrass (blackgrass; [2]): 50; Plant response rating, Galium (galium; [1]): 30; Plant response rating, Sedge, Umbrella (sedge, umbrella; [3]): 0; Plant response rating, Sedge, Umbrella (sedge, umbrella; [4]): 0; Plant response rating, Sedge, Umbrella (sedge, umbrella; 250 g ai/ha, scale 0 to 100): 0; Plant response rating, Ryegrass, Italian (ryegrass, Italian; [7]): 20; Plant response rating, Ryegrass, Italian (ryegrass, Italian; [8]): 60; Plant response rating, Ragweed (ragweed; [7]): 20; Plant response rating, Ragweed (ragweed; [8]): 80; Plant response rating, Kochia (kochia; [7]): 40; Plant response rating, Kochia (kochia; [8]): 60; Plant response rating, Rice (rice; [3]): 0; Plant response rating, Rice (rice; [4]): 0; Plant response rating, Rice (rice; 250 g ai/ha, scale 0 to 100): 20; Plant response rating, Ducksalad (ducksalad; [3]): 100; Plant response rating, Ducksalad (ducksalad; [4]): 100; Plant response rating, Ducksalad (ducksalad; 250 g ai/ha, scale 0 to 100): 100
O=C1NCC(c2cccc(C(F)(F)F)c2)C1C(=O)Nc1ccc(F)cc1F (racemic) [Compound 207] | 50 | 0 | 20 | 50 | 0 | 0 | 20 | 0 | 15 | 60 | 70 | 0 | 0 | 0 | 40 | 20 | 0 | 30 | 15 | 15 | Blackgrass plant response rating (0 to 100 scale, 0 is no effect, 100 is complete control) (blackgrass; 500 g ai/ha): 70; Plant response rating, Sedge, Umbrella (sedge, umbrella; 1000 g ai/ha, scale 0 to 100): 0; Plant response rating, Ryegrass, Italian (ryegrass, Italian; [11]): 0; Plant response rating, Ragweed (ragweed; [11]): 0; Plant response rating, Rice (rice; 1000 g ai/ha, scale 0 to 100): 15; Plant response rating, Ducksalad (ducksalad; [10]): 75; Plant response rating, Ducksalad (ducksalad; 500 g ai/ha, scale 0 to 100): 100; Plant response rating, Ducksalad (ducksalad; 1000 g ai/ha, scale 0 to 100): 80
O=C1NCC(c2cccc(C(F)F)c2)C1C(=O)Nc1cccc(F)c1F (racemic) [Compound 211] | 70 | 0 | 0 | 60 | 30 | 30 | 40 | 60 | 0 | 60 | 50 | 60 | 0 | 0 | 40 | 80 | 40 | 70 | 0 | 15 | Blackgrass plant response rating (0 to 100 scale, 0 is no effect, 100 is complete control) (blackgrass; 500 g ai/ha): 70; Plant response rating, Sedge, Umbrella (sedge, umbrella; 1000 g ai/ha, scale 0 to 100): 30; Plant response rating, Ryegrass, Italian (ryegrass, Italian; [11]): 30; Plant response rating, Ragweed (ragweed; [11]): 0; Plant response rating, Rice (rice; 1000 g ai/ha, scale 0 to 100): 15; Plant response rating, Ducksalad (ducksalad; [10]): 100; Plant response rating, Ducksalad (ducksalad; 500 g ai/ha, scale 0 to 100): 75; Plant response rating, Ducksalad (ducksalad; 1000 g ai/ha, scale 0 to 100): 100
O=C1NCC(c2cccc(Cl)c2)C1C(=O)Nc1cccc(F)c1F (racemic) [Compound 275] |  | 0 |  |  |  |  |  |  | 0 | 100 | 50 | 60 | 0 | 0 | 60 | 40 | 50 | 80 | 10 | 10 | Plant response rating, Blackgrass (blackgrass; [2]): 60; Plant response rating, Galium (galium; [2]): 70; Plant response rating, Sedge, Umbrella (sedge, umbrella; [4]): 0; Plant response rating, Ryegrass, Italian (ryegrass, Italian; [13]): 30; Plant response rating, Ryegrass, Italian (ryegrass, Italian; [14]): 50; Plant response rating, Ryegrass, Italian (ryegrass, Italian; [15]): 30; Plant response rating, Ragweed (ragweed; [13]): 30; Plant response rating, Ragweed (ragweed; [14]): 30; Plant response rating, Ragweed (ragweed; [15]): 20; Plant response rating, Kochia (kochia; [14]): 80; Plant response rating, Kochia (kochia; [15]): 60; Plant response rating, Rice (rice; [4]): 0; Plant response rating, Ducksalad (ducksalad; [4]): 85; Plant response rating, Ducksalad (ducksalad; [10]): 100; Plant response rating, Ducksalad (ducksalad; 500 g ai/ha, scale 0 to 100): 100
